Data: patent US20220362182A1, “METHODS FOR REVERSING HEPATIC STEATOSIS” (BRIGHTSEED, INC., priority 2020, published 2022)
“Also recorded” adds a separate entry of the source.

Assays:
T6PNE cells = test: fat clearance assay in palmitate-treated T6PNE cells (Oil Red O, Nile Red, triglyceride); assay type: cell-based, human; settings: 0.25 mM palmitate for 2 days; for cellular triglyceride (TG) level: 10 μM
Procedure: Oil red O and Nile Red staining were used to measure lipid accumulation. Oil Red O staining was done as known in the art. Briefly, fixed cells were incubated with Oil Red O solution (Poly Scientific) for 3 h, followed by photomicrography (Olympus, IX71). For Nile Red staining, dye (1: 500 in PBS from 1 mg/ml in ethanol stock, Sigma) was added for 30 mins and DAPI added for 10 mins at room temperature. Quantification of Nile Red staining was done with a Celigo imaging cytometer (Nexcelom Bioscience). More than 4000 cells were analyzed for each quantification. The number of Nile Redpositive cells was normalized to the DAPI-positive cell number for each well and fold change was calculated relative to a DMSO control well.
Palmitate (150 mM) (Sigma-Aldrich) was prepared in 50% ethanol and precomplexed with 15% fatty acid-free BSA (Research Organics, Cleveland, Ohio, USA) in a 37 C water shaker. BSA-precomplexed palmitate was used as a 12 mM stock solution for all assays with a final concentration of 0.25 mM palmitate in cell culture medium.
siRNAs were purchased from Ambion. For transfections, 24 μL of each siRNA (1 μM stock) was mixed with 90 μL of a 1:100 dilution of Lipofectamine RNAi MAX (Invitrogen, Waltham, Mass., USA) in Opti-MEM. Transfection was done in 24 well plates (Thermo Fisher Scientific, Waltham, Mass., USA), by incubation with cells for 30 min. at room temperature. One day after transfection, cells were transferred to 96 well plates (2000 cells per well) and incubated at 37° C. for an additional day. Forty-eight hours after transfection, either palmitate-BSA complex or BSA control plus or minus compounds was added for 2 days. For validation of siRNAs, transfected cells were harvested for RNA purification and QPCR for each gene 2 days after transfection.
The bicinchoninic acid (BCA) protein assay kit assay (Thermo scientific) was used to measure protein amount for DART, Western blotting and TG assays. Absorbance at 550 nm was determined using a plate reader.

CYP26A1 mRNA = test: CYP26a1 mRNA in primary human hepatocytes; assay type: cell-based; settings: high fat media, 5, 15, 40 µM, Day 4 to Day 10
Procedure: Experiments with primary human hepatocytes were performed by CN-Bio (Cambridge, UK). Primary human hepatocytes (PHHs), human Kupffer cells (HKs) and human stellate cells (HSCs) were seeded onto CN-Bio's PhysioMimix LC12 MPS culture plates at 6×10^5 cells for PHHs and 6×10^4 cells for HKs and HSCs in 1.6 ml of CN-Bio's HEP-lean media with 5% FCS. Throughout the experiment the cells were maintained at a flow rate of 1 μl/s. After 24 h (Day 1) of seeding, the media was changed to HEP-lean media and the cells were incubated until day 4 to allow the cells to form microtissues. At day 4 post seeding, media was changed to HEP-fat media and treated with DMSO or NCT (5, 15, 40 μM). Media was replaced on days 6 and 8. Cells were harvested on day 10 for RNA extraction. Data are presented as mean ±SEM of three or more samples as indicated. Statistical significance was assessed using Student's t-test, ANOVA or R^2 coefficient of correlation.

Row | SMILES | fat clearance (stored fat by Oil Red O and Nile Red staining) (T6PNE cells) | cellular triglyceride (TG) level (T6PNE cells) | CYP26a1 mRNA (CYP26A1 mRNA)
1 | COc1cc(/C=C/C(=O)NCCc2ccc(O)cc2)ccc1O [NFT, N-trans feruloyltyramine] | less stored fat than control cells; also recorded: induced fat clearance from palmitate-loaded cells | produced the same result as the Nile Red staining | 
2 | O=C(/C=C/c1ccc(O)c(O)c1)NCCc1ccc(O)cc1 [NCT, N-trans-caffeoyltyramine] | less stored fat than control cells; also recorded: induced fat clearance from palmitate-loaded cells | produced the same result as the Nile Red staining | induced CYP26a1; also recorded: significantly induced
